Structures can show the parent of a compound that is named as a salt.
Legend:
[1] = system: Mia Paca-2 pancreatic cancer; assay: In vivo efficacy test on Mia Paca-2 pancreatic cancer; set-up: species or system mice; settings: Mia Paca-2, BID
Protocol: (§1) After one week of adaptive feeding of mice, Mia Paca-2 cells in a logarithmic phase were resuspended in serum-free DMEM, and then mixed with Matrigel in a ratio of 1: 1. 1 × 10^7 Mia Paca-2 cells were inoculated subcutaneously at the right flank at 100 µL per mouse, and tumor growth was observed regularly. When the tumor grew to an average volume of 150 to 200 mm^3, the mice were randomly divided into a model group and an administration group (single drug, in combination with trametinib) based on the tumor size and body weight. The tumor size and body weight were measured and recorded before and during the administration. After the treatment, the tumor size in the model group was compared with that in the administration group to determine the efficacy.

LOVO colorectal cancer = assay: In vivo efficacy test on LOVO colorectal cancer; set-up: species or system mice; settings: 50 mg/kg, BID
Protocol: as §1, with “LOVO” for “Mia Paca-2”, “F12K, 5” for “DMEM, and then mixed with Matrigel in a ratio of 1: 1. 1”, “10^6 LOVO” for “10^7 Mia Paca-2”, “group” for “group (single drug, in combination with trametinib)”

[2] = Solid state stability (XRPD and HPLC); type: physicochemical
Protocol: The purity test, dynamic solubility test, and stability test in the assay were measured with an Agilent 1260 high-performance liquid chromatograph, and the salt formation molar ratio of ions was tested by ion chromatography, and the analytical conditions are shown in Table 5 and Table 6.
Table 56 Summary of solid state stability evaluation

[3] = Dynamic solubility in water, SGF, FaSSIF and FeSSIF; settings: for S: solubility: 37°C, solid feed concentration 10 mg/mL; for pH: pH value of the filtrate
Protocol: 100 mg of NaCl and 50 mg of Triton X-100 were weighed into a 50 mL volumetric flask, and purified water was added to complete dissolution. 816 µL of 1 M hydrochloric acid was added thereto, and the pH was adjusted to 1.8 with 1 M hydrochloric acid or 1 M NaOH solution. Purified water was added to make up to volume.
340 mg of anhydrous NaH2PO4, 42 mg of NaOH, and 620 mg of NaCl were weighed into a 100 mL volumetric flask. Purified water was added to complete dissolution. The pH was adjusted to 6.5 with 1 M hydrochloric acid or 1 M NaOH solution. Purified water was added to make up to volume. 110 mg of SIF powder was then weighed into a 50 mL volumetric flask, added with the above solution to complete dissolution and make up to volume.
About 90 mL of purified water was added to complete dissolution, and the pH was adjusted to 5.0 with 1 M hydrochloric acid or 1 M NaOH solution. Purified water was added to make up to volume. 560 mg of SIF powder was then weighed into a 50 mL volumetric flask, added with the above solution to complete dissolution and make up to volume.
Rotating mixing was carried out at 37°C at a solid feed concentration of 10 mg/mL (calculated as the compound of formula I). […] After sampling at each time point, the samples were centrifuged (10000 rpm) and filtered (0.45 µm PTFE filter head), and the HPLC concentration and pH value of the filtrate were measured.

[4] = XRPD after 25°C/60%RH/open, 1 week
[5] = XRPD after 40°C/75%RH/open, 1 week

| SMILES | HPLC results Purity (area%) ([2]; 25°C/60%RH/open, 1 week) | HPLC results Purity (area%) ([2]; 40°C/75%RH/open, 1 week) | HPLC results Purity (area%) ([2]; Onset) | Crystal form [2, 4] | Crystal form [2, 5] | S: solubility ([3]; FaSSIF, 1 hour, 60 min) [mg/mL] | S: solubility ([3]; FaSSIF, 4 hours, 240 min) [mg/mL] | S: solubility ([3]; FaSSIF, 24 hours, 1440 min) [mg/mL] | S: solubility ([3]; H2O, 1 hour, 60 min) [mg/mL] | S: solubility ([3]; H2O, 4 hours, 240 min) [mg/mL] | S: solubility ([3]; H2O, 24 hours, 1440 min) [mg/mL] | S: solubility ([3]; SGF, 1 hour, 60 min) [mg/mL] | S: solubility ([3]; SGF, 4 hours, 240 min) [mg/mL] | S: solubility ([3]; SGF, 24 hours, 1440 min) [mg/mL] | pH ([3]; FaSSIF, 1 hour) | pH ([3]; FaSSIF, 4 hours) | pH ([3]; FaSSIF, 24 hours) | pH ([3]; FeSSIF, 1 hour) | pH ([3]; FeSSIF, 4 hours) | pH ([3]; FeSSIF, 24 hours) | also measured |
| --- | --- | --- | --- | --- | --- | --- | --- | --- | --- | --- | --- | --- | --- | --- | --- | --- | --- | --- | --- | --- | --- |
| Cc1nc(N[C@H](C)c2cccc(C(F)F)c2F)c2cn(C3(C(F)F)CC3)c(=O)cc2n1 [Control compound 2, reference compound] |  |  |  |  |  |  |  |  |  |  |  |  |  |  |  |  |  |  |  |  | Average tumor weight at the end of the treatment ([1]; 50 mg/kg): 0.46 g; At the end of treatment Average tumor weight (LOVO colorectal cancer): 1.08 g |
| CC(=O)Nc1cccc(-n2c(=O)n(C3CC3)c(=O)c3c(Nc4ccc(I)cc4F)n(C)c(=O)c(C)c32)c1 [Trametinib] |  |  |  |  |  |  |  |  |  |  |  |  |  |  |  |  |  |  |  |  | Average tumor weight at the end of the treatment ([1]; 0.125 mg/kg): 0.22 g |
| Cc1nc(N[C@H](C)c2cccc(S(F)(F)(F)(F)F)c2)c2cn(C3(CF)CC3)c(=O)cc2n1 [Crystal form A of ethanesulfonate salt] | 99.15 | 99.29 | 99.10 | Crystal form A of ethanesulfonate salt | Crystal form A of ethanesulfonate salt | 0.62 | 1.61 | 2.52 | 10.06 | 9.81 | 10.08 | 10.42 | 10.13 | 10.11 | 4.5 | 4.2 | 3.7 | 4.8 | 4.8 | 4.7 | S: solubility ([3]; FeSSIF, 1 hour, 60 min): 2.79 mg/mL; S: solubility ([3]; FeSSIF, 4 hours, 240 min): 3.62 mg/mL; S: solubility ([3]; FeSSIF, 24 hours, 1440 min): 3.70 mg/mL; pH ([3]; H2O, 1 hour): 2.9; pH ([3]; H2O, 4 hours): 3.1; pH ([3]; H2O, 24 hours): 2.8; pH ([3]; SGF, 1 hour): 1.6; pH ([3]; SGF, 4 hours): 1.5; pH ([3]; SGF, 24 hours): 1.5 |
| Cc1nc(N[C@H](C)c2cccc(S(F)(F)(F)(F)F)c2)c2cn(C3(CF)CC3)c(=O)cc2n1 [Crystal form A of fumarate salt] | 98.67 | 98.70 | 98.67 | Crystal form A of fumarate salt | Crystal form A of fumarate salt | 0.36 | 0.32 | 0.32 | 0.55 | 0.57 | 0.61 | 1.96 | 1.94 | 2.09 | 4.8 | 4.6 | 4.3 | 4.6 | 4.8 | 4.7 | pH ([3]; H2O, 1 hour): 4.2; pH ([3]; H2O, 4 hours): 4.2; pH ([3]; H2O, 24 hours): 4.1; pH ([3]; SGF, 1 hour): 1.8; pH ([3]; SGF, 4 hours): 2.0; pH ([3]; SGF, 24 hours): 1.7 |
| Cc1nc(N[C@H](C)c2cccc(S(F)(F)(F)(F)F)c2)c2cn(C3(CF)CC3)c(=O)cc2n1 [Crystal form A of methanesulfonate salt] | 99.21 | 99.26 | 99.18 | Crystal form A of methanesulfonate salt | Crystal form A of methanesulfonate salt | 1.44 | 1.61 | 1.83 | 10.25 | 10.16 | 9.92 | 9.76 | 9.88 | 10.13 | 4.3 | 4.4 | 4.0 | 4.8 | 4.8 | 4.8 | S: solubility ([3]; FeSSIF, 1 hour, 60 min): 4.04 mg/mL; S: solubility ([3]; FeSSIF, 4 hours, 240 min): 4.16 mg/mL; S: solubility ([3]; FeSSIF, 24 hours, 1440 min): 4.24 mg/mL; pH ([3]; H2O, 1 hour): 3.5; pH ([3]; H2O, 4 hours): 3.5; pH ([3]; H2O, 24 hours): 3.1; pH ([3]; SGF, 1 hour): 1.7; pH ([3]; SGF, 4 hours): 1.8; pH ([3]; SGF, 24 hours): 1.6 |
| Cc1nc(N[C@H](C)c2cccc(S(F)(F)(F)(F)F)c2)c2cn(C3(CF)CC3)c(=O)cc2n1 [Crystal form B of citrate salt] | 99.00 | 99.01 | 98.92 | Crystal form A of citrate salt | Crystal form A of citrate salt | 0.79 | 1.18 | 1.61 | 3.61 | 3.60 | 3.68 | 9.13 | 9.40 | 9.29 | 4.5 | 3.9 | 3.6 | 4.8 | 4.6 | 4.5 | S: solubility ([3]; FeSSIF, 1 hour, 60 min): 4.09 mg/mL; S: solubility ([3]; FeSSIF, 4 hours, 240 min): 3.52 mg/mL; S: solubility ([3]; FeSSIF, 24 hours, 1440 min): 2.96 mg/mL; pH ([3]; H2O, 1 hour): 3.5; pH ([3]; H2O, 4 hours): 3.5; pH ([3]; H2O, 24 hours): 3.3; pH ([3]; SGF, 1 hour): 2.5; pH ([3]; SGF, 4 hours): 2.6; pH ([3]; SGF, 24 hours): 2.4 |
